Measured values published in US20210177828A1, “TAM FAMILY KINASE /AND CSF1R KINASE INHIBITOR AND USE THEREOF” (Nanjing Transthera Biosciences Co., Ltd., priority 2018, published 2021).
pIC50: −log10 of the molar value.

tested on: not listed separately; assay: Liver microsomal stability; type: in vitro ADME; conditions: mouse liver microsomes, 0.5 mg protein/mL, 1 μM compound
Procedure: An appropriate amount of the compound was precisely weighed and dissolved in DMSO to prepare a 5.0 mM stock solution. The 5.0 mM stock solution was diluted with DMSO to 1.0 mM, and finally diluted with water to a 10 μM working solution of the test sample for use (the DMSO content in the reaction system was 0.1%).
(1) The liver microsomes (20 mg protein/mL) were taken from a −80° C. refrigerator, pre-incubated on a 37° C. water bath thermostatic oscillator for 3 min, and thawed for use.
(2) An incubation system (without compound and β-NADPH) was prepared according to “composition of the incubation system” described above, and pre-incubated on a 37° C. water bath thermostatic oscillator for 2 min.
(3) Control group (without β-NADPH): 30 μL of water and 30 μL of compound working solution (10 μM) were added to 240 μL of the incubation system in step (2), and the reaction system was vortexed for 30 s and thoroughly mixed. The total volume of the reaction system was 300 μL. The sample was duplicated. The reaction solution was placed on a 37° C. water bath thermostatic oscillator for incubation, and timing was started. The sampling was conducted at 0 min and 60 min.
(4) Sample group: 70 μL of β-NADPH solution (10 mM) and 70 μL of compound working solution (10 μM) were added to 560 μL of the incubation system in step (2), and the total volume of the reaction system was 700 μL. The reaction solution was vortexed for 30 s and thoroughly mixed. The sample was duplicated. The reaction solution was placed on a 37° C. water bath thermostatic oscillator for incubation, and timing was started. The sampling was conducted at 0 min, 5 min, 10 min, 20 min, 30 min and 60 min.
(5) The reaction solution was vortexed for 3 min, and centrifuged at 12,000 rpm for 5 min.
(6) 50 μL of the supernatant was added to 150 μL of water, and the resulting solution was thoroughly vortexed and analyzed by LC/MS/MS.

For `COc1cc2nccc(Oc3cnc(NC(=O)c4cn(CC5CCOCC5)cc(-c5ccc(C)cc5)c4=O)nc3)c2cc1OC` [Compound 4, N-(5-((6,7-dimethoxyquinolin-4-yl)oxy)pyrimidin-2-yl)-4-oxo-1-((tetrahydro-2H-pyran-4-yl)methyl)-5-(p-tolyl)-1,4-dihydropyridin-3-carboxamide], which half-life at 1 μM is on record?
Its half-life at 1 μM is 3.22 h.

And the microsomal CLint at 1 μM?
The microsomal CLint at 1 μM was 7.2 µL/min/mg.

With `COc1cc2nccc(Oc3ccc(NC(=O)c4cn(CC5CC[S+]([O-])CC5)cc(-c5ccc(C)cc5)c4=O)nc3)c2cc1OC` (stereo not shown) [Compound 8, N-(5-((6,7-dimethoxyquinolin-4-yl)oxy)pyridin-2-yl)-1-((1-oxotetrahydro-2H-thiopyran-4-yl)methyl)-4-oxo-5-(p-tolyl)-1,4-dihydropyridin-3-carboxamide] as the compound, how does the half-life at 1 μM read?
The half-life at 1 μM was 3.22 h.

What about the microsomal CLint at 1 μM of the same compound?
Its microsomal CLint at 1 μM is 7.2 µL/min/mg.

With `COc1cc2nccc(Oc3ccc(NC(=O)c4cn(CC5CCSCC5)cc(-c5ccc(C)cc5)c4=O)nc3)c2cc1OC` [Compound 9, N-(5-((6,7-dimethoxyquinolin-4-yl)oxy)pyridin-2-yl)-4-oxo-1-((tetrahydro-2H-thiopyran-4-yl)methyl)-5-(p-tolyl)-1,4-dihydropyridin-3-carboxamide] as the compound, how does the half-life at 1 μM read?
Its half-life at 1 μM is 0.818 h.

And the microsomal CLint at 1 μM?
The microsomal CLint at 1 μM was 28.2 µL/min/mg.

For `COc1cc2nccc(Oc3ccc(NC(=O)c4cn(C5CCOCC5)cc(-c5ccc(F)cc5)c4=O)nc3)c2cc1OC` [Compound 27, N-(5-((6,7-dimethoxyquinolin-4-yl)oxy)pyridin-2-yl)-5-(4-fluorophenyl)-4-oxo-1-(tetrahydro-2H-pyran-4-yl)-1,4-dihydropyridin-3-carboxamide], which half-life at 1 μM is on record?
Its half-life at 1 μM is 5.02 h.

And the microsomal CLint at 1 μM?
Its microsomal CLint at 1 μM is 4.6 µL/min/mg.

For `COc1cc2nccc(Oc3ccc(NC(=O)c4nn(C5CCOCC5)cc(-c5ccc(C)cc5)c4=O)cc3F)c2cc1OC` [Compound 28], which half-life at 1 μM is on record?
The half-life at 1 μM was 1.44 h.

And the microsomal CLint at 1 μM?
The microsomal CLint at 1 μM was 16 µL/min/mg.

With `Cc1ccc(-c2cn(C3CCOCC3)nc(C(=O)Nc3ccc(Oc4ccnc5cc6c(cc45)OCO6)cn3)c2=O)cc1` [Compound 29, N-(5-([1,3]dioxolo[4,5-g]quinolin-8-yloxy)pyridin-2-yl)-4-oxo-1-(tetrahydro-2H-pyran-4-yl)-5-(p-tolyl)-1,4-dihydropyridazin-3-carboxamide] as the compound, how does the half-life at 1 μM read?
Its half-life at 1 μM is 1.6 h.

What about the microsomal CLint at 1 μM of the same compound?
The microsomal CLint at 1 μM was 14.4 µL/min/mg.

With `Cc1ccc(-c2cn(C3CCOCC3)nc(C(=O)Nc3ccc(Oc4ccnc5cc6c(cc45)OCCO6)cn3)c2=O)cc1` [Compound 30, N-(5-((2,3-dihydro-[1,4]dioxino[2,3-g]quinolin-9-yl)oxy)pyridin-2-yl)-4-oxo-1-(tetrahydro-2H-pyran-4-yl)-5-(p-tolyl)-1,4-dihydropyridazin-3-carboxamide] as the compound, how does the half-life at 1 μM read?
Its half-life at 1 μM is 1.38 h.

And the microsomal CLint at 1 μM?
The microsomal CLint at 1 μM was 16.8 µL/min/mg.

For `COc1cc2nccc(Oc3cnc(NC(=O)c4cn(C5CCOCC5)cc(-c5ccc(F)cc5)c4=O)nc3)c2cc1OC` [Compound 31, N-(5-((6,7-dimethoxyquinolin-4-yl)oxy)pyrimidin-2-yl)-5-(4-fluorophenyl)-4-oxo-1-(tetrahydro-2H-pyran-4-yl)-1,4-dihydropyridin-3-carboxamide], which half-life at 1 μM is on record?
The half-life at 1 μM was 6.42 h.

What about the microsomal CLint at 1 μM of the same compound?
Its microsomal CLint at 1 μM is 3.6 µL/min/mg.

Which half-life at 1 μM does the source give for `COc1cc2nccc(Oc3ccc(NC(=O)c4cc(CC5CCOCC5)cn(-c5ccc(F)cc5)c4=O)nc3)c2cc1OC` [Compound 32, N-(5-((6,7-dimethoxyquinolin-4-yl)oxy)pyridin-2-yl)-1-(4-fluorophenyl)-2-oxo-5-((tetrahydro-2H-pyran-4-yl)methy 1)-1,2-dihydropyridin-3-carboxamide] here?
Its half-life at 1 μM is 1.39 h.

And the microsomal CLint at 1 μM?
The microsomal CLint at 1 μM was 16.6 µL/min/mg.

For `COc1cc2nccc(Oc3cnc(NC(=O)c4nn(C5CCOCC5)cc(-c5ccc(F)cc5)c4=O)nc3)c2cc1OC` [Compound 33, N-(5-((6,7-dimethoxyquinolin-4-yl)oxy)pyrimidin-2-yl)-5-(4-fluorophenyl)-4-oxo-1-(tetrahydro-2H-pyran-4-yl)-1,4-dihydropyridazin-3-carboxamide], which half-life at 1 μM is on record?
Its half-life at 1 μM is 4.82 h.

And the microsomal CLint at 1 μM?
Its microsomal CLint at 1 μM is 4.8 µL/min/mg.

With `COc1cc2nccc(Oc3ccc(NC(=O)c4nn(C5CCOCC5)cc(-c5ccc(F)cc5)c4=O)nc3)c2cc1OC` [Compound 34, N-(5-((6,7-dimethoxyquinolin-4-yl)oxy)pyridin-2-yl)-5-(4-fluorophenyl)-4-oxo-1-(tetrahydro-2H-pyran-4-yl)-1,4-dihydropyridazin-3-carboxamide] as the compound, how does the half-life at 1 μM read?
Its half-life at 1 μM is 5.25 h.

And the microsomal CLint at 1 μM?
Its microsomal CLint at 1 μM is 4.4 µL/min/mg.

molecular target: T1, MDA-MB-231 cell pAxl (Homo sapiens, UniProt P30530); assay: Inhibitory activity on cell pAxl, MDA-MB-231 cells, hGAS6 stimulation, Western Blot; type: cell-based; conditions: hGAS6 200 ng/mL
T1 construct: endogenous in cells; host or cells: MDA-MB-231
T1 sequence (P30530 26-894): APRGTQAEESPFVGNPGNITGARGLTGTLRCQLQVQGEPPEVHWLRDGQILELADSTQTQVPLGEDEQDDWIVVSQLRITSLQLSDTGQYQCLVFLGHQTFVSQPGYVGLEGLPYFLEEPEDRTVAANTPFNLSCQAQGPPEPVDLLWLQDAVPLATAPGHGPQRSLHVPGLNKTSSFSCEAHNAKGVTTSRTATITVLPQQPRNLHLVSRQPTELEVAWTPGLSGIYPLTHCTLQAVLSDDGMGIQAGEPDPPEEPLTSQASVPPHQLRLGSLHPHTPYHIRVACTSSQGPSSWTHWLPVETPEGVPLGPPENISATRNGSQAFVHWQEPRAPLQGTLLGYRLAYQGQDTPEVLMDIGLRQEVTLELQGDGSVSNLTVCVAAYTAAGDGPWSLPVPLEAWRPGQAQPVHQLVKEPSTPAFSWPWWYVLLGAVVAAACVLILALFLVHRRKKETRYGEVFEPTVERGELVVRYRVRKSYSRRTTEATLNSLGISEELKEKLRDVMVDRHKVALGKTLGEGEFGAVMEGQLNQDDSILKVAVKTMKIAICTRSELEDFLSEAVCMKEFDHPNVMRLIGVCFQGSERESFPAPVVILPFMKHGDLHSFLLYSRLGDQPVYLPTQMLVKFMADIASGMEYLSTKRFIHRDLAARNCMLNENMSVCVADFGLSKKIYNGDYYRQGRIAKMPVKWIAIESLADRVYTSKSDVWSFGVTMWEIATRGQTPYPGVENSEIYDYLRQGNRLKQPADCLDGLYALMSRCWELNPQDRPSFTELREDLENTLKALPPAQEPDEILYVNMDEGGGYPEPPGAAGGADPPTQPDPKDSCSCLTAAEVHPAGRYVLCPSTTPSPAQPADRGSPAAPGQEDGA
Procedure: MDA-MB-231 is a breast cancer cell.
MDA-MB-231 cells were inoculated to a 6-well plate (containing 10% FBS DMEM medium, […] cells per well) and adherently cultivated at 37° C., and 5% CO2 for 18 hrs. The cells were starved overnight, and then compound solutions with different concentrations were added. Compounds 1 and 2 had final concentrations of 1.1, 3.3 and 10 nM, and the remaining compounds had final concentrations of 1.1, 3.3, 10 and 30 nM. […] There was a medium containing 1‰DMSO in the negative control well. The cells were incubated at 37° C., and 5% CO2 for 60 min, and then hGAS6 (R&D, final concentration: 200 ng/mL) was added to each well. The cells were further incubated for 60 min, and then the total protein of the cells was extracted for Western Blot experiment. Gray analysis was performed on the results with Image J software, and IC50 values were calculated with GraphPad 5.0 software. The inhibitory activities of the compounds on cell pAxl were detected.

With `COc1cc2nccc(Oc3ccc(NC(=O)c4cn(CC5CCOCC5)cc(-c5ccc(C)cc5)c4=O)nc3)c2cc1OC` [Compound 1, N-(5-((6,7-dimethoxyquinolin-4-yl)oxy)pyridin-2-yl)-4-oxo-1-((tetrahydro-2H-pyran-4-yl)methyl)-5-(p-tolyl)-1,4-dihydropyridin-3-carboxamide] as the compound, how does the pIC50 read?
The pIC50 was > 8.96.

With `COc1cc2nccc(Oc3ccc(NC(=O)c4nn(CC5CCOCC5)cc(-c5ccc(C)cc5)c4=O)nc3)c2cc1OC` [Compound 2, N-(5-((6,7-dimethoxyquinolin-4-yl)oxy)pyridin-2-yl)-4-oxo-1-((tetrahydro-2H-pyran-4-yl)methyl)-5-(p-tolyl)-1,4-dihydropyridazin-3-carboxamide] as the compound, how does the pIC50 read?
The pIC50 was > 8.96.

With `COc1cc2nccc(Oc3cnc(NC(=O)c4cn(CC5CCOCC5)cc(-c5ccc(C)cc5)c4=O)nc3)c2cc1OC` [Compound 4, N-(5-((6,7-dimethoxyquinolin-4-yl)oxy)pyrimidin-2-yl)-4-oxo-1-((tetrahydro-2H-pyran-4-yl)methyl)-5-(p-tolyl)-1,4-dihydropyridin-3-carboxamide] as the compound, how does the pIC50 read?
Its pIC50 is > 8.96.

With `COc1cc2nccc(Oc3ccc(NC(=O)c4cn(CC5CCS(=O)(=O)CC5)cc(-c5ccc(C)cc5)c4=O)nc3)c2cc1OC` [Compound 7, N-(5-((6,7-dimethoxyquinolin-4-yl)oxy)pyridin-2-yl)-1-((1,1-dioxotetrahydro-2H-thiopyran-4-yl)methyl)-4-oxo-5-(p-tolyl)-1,4-dihydropyridin-3-carboxamide] as the compound, how does the pIC50 read?
Its pIC50 is ≥ 8.96.

With `COc1cc2nccc(Oc3ccc(NC(=O)c4cn(CC5CC[S+]([O-])CC5)cc(-c5ccc(C)cc5)c4=O)nc3)c2cc1OC` (stereo not shown) [Compound 8, N-(5-((6,7-dimethoxyquinolin-4-yl)oxy)pyridin-2-yl)-1-((1-oxotetrahydro-2H-thiopyran-4-yl)methyl)-4-oxo-5-(p-tolyl)-1,4-dihydropyridin-3-carboxamide] as the compound, how does the pIC50 read?
The pIC50 was ≥ 9.00.

With `COc1cc2nccc(Oc3ccc(NC(=O)c4cn(CC5CCSCC5)cc(-c5ccc(C)cc5)c4=O)nc3)c2cc1OC` [Compound 9, N-(5-((6,7-dimethoxyquinolin-4-yl)oxy)pyridin-2-yl)-4-oxo-1-((tetrahydro-2H-thiopyran-4-yl)methyl)-5-(p-tolyl)-1,4-dihydropyridin-3-carboxamide] as the compound, how does the pIC50 read?
Its pIC50 is > 8.00.

With `COc1cc2nccc(Oc3ccc(NC(=O)c4cc(-c5ccc(C)cc5)cn(CC5CCOCC5)c4=O)nc3)c2cc1OC` [Compound 13, N-(5-((6,7-dimethoxyquinolin-4-yl)oxy)pyridin 2yl)-2-oxo-1-((tetrahydro-2H-pyran-4-yl)methyl)-5-(p-tolyl)-1,2-dihydropyridin-3-carboxamide] as the compound, how does the pIC50 read?
The pIC50 was ≥ 8.51.

With `COc1cc2nccc(Oc3ccc(NC(=O)c4cn(CC5CCOCC5)cc(-c5ccc(C)cc5)c4=O)nn3)c2cc1OC` [Compound 24, N-(6-((6,7-dimethoxyquinolin-4-yl)oxy)pyridazin-3-yl)-4-oxo-1-((tetrahydro-2H-pyran-4-yl)methyl)-5-(p-tolyl)-1,4-dihydropyridin-3-carboxamide] as the compound, how does the pIC50 read?
Its pIC50 is > 8.00.

With `COc1cc2nccc(Oc3ccc(NC(=O)c4cn(CC5CCOCC5)c5ccccc5c4=O)nc3)c2cc1OC` [Compound 25, N-(5-((6,7-dimethoxyquinolin-4-yl)oxy)pyridin-2-yl)-4-oxo-1-((tetrahydro-2H-pyran-4-yl)methyl)-1,4-dihydroquinolin-3-carboxamide] as the compound, how does the pIC50 read?
The pIC50 was ≥ 6.30.
